# Source: patent US20110112184A1, “COMPOUNDS WITH GLYCIDIC STRUCTURE ACTIVE IN THE THERAPY OF SYSTEMIC AND LOCAL INFLAMMATION” (priority 2008, published 2011)
# Legend:
# [1] = system: mice treated with doxorubicin; assay: Acute doxorubicin-induced enterocyte injury in mice; type: in vivo; conditions: doxorubicin 27 mg/kg i.p. + compound 4 25 μg/kg orally; 72 h
# Procedure: FIG. 11. Serum levels of KC in untreated mice or mice submitted to acute treatment with doxorubicin or chronic treatment with doxorubicin and 5-fluorouracil. Untr=Untreated; Doxo 27 mg=Mice submitted to acute treatment with doxorubicin; Doxo 27 mg comp 4=Mice submitted to acute treatment with doxorubicin and concomitant p.o. administration of comp 4; Doxo cron=Mice submitted to chronic treatment with doxorubicin and 5-fluoruracil; Doxo cron comp 4=Mice submitted to chronic treatment with doxorubicin and 5-fluoruracil and concomitant p.o. administration of compound 4.
# FIG. 12. Histology of the epithelium of the small intestine in mice after acute treatment with doxorubicin (DOXO) or acute treatment with doxorubicin and concomitant administration of compound 4 (comp 4+DOXO).
# For the first model, doxorubicin was administered to mice by intraperitoneal injection (27 mg/kg). Some of the mice were administered at the same time compound 4 (25 μg/kg orally). Recovery of the blood for the determination of circulating KC levels and subsequent sacrifice of the animals were performed at 72 h after treatment.
# mice treated with LPS = assay: Serum KC levels after oral LPS in mice (diarrhoea model); type: in vivo; conditions: compound 4 25 μg/kg oral, then LPS 50 mg/kg oral, serum after 4 h, ELISA
# Procedure: FIG. 3. Serum levels of cytokine KC from mice treated with LPS alone or LPS with comp 4. Untr=untreated; LPS=Mice treated with LPS alone; comp 4+LPS=Mice treated with comp 4+LPS; comp 4=Mice treated with comp 4 alone.
# We tested whether oral pretreatment of mice with the compound 4 interferes with the increase in KC serum levels induced by LPS administration to mice. The dosage of compound 4 chosen for all in vivo experiments was 25 μg/kg. Mice (10/group) were treated orally with compound 4 (25 μg/kg), followed by oral treatment with LPS (50 mg/kg). Serum samples were collected after 4 h, and KC levels were evaluated by ELISA.
# [2] = system: LPS/GalN-induced shock in FVB mice; assay: LPS/galactosamine-induced shock in mice; type: in vivo; conditions: LPS 5 μg/mouse + GalN 40 mg/mouse i.p., compound 4 25 μg/kg (0.5 μg/mouse) p.o.
# Procedure: FIG. 4. Protection afforded by comp 4 in LPS-induced shock in mice. Untr=untreated; LPSGalN=Mice treated with LPS/GalN alone; LPSGalN Comp 4=Mice treated with LPS/GalN+Comp 4=Mice treated with Comp 4 alone.
# Compound 4 was tested in LPS/galactosamine (GalN)-induced shock in mice. LPS shock was induced in 2-months old FVB mice through intraperitoneal (i.p). injection of 5 μg LPS/mouse (LPS from Salmonella enterica abortus equi) and 40 mg/mouse GalN (LPS/GalN).
# [3] = system: ovalbumin-treated C57B1/6 mice; assay: Ovalbumin mouse model of asthma; type: in vivo
# Description: FIG. 8. Serum levels of IL-4, IL-5 and IL-10 in untreated mice or mice treated with ovalbumin+comp 4. Untr=Untreated mice; comp 4=Mice treated with comp 4 alone; OVA=Mice treated with ovalbumin alone; comp 4+OVA=Mice treated with comp 4 and ovalbumin.
# FIG. 9. BALF levels of IL-4 and IL-5 in untreated mice or mice treated with ovalbumin+compound 4. Untr=Untreated mice; comp 4=Mice treated with comp 4 alone; OVA=Mice treated with ovalbumin alone; comp 4+OVA=Mice treated with comp 4 and ovalbumin.
# Compound 4 was tested in a mouse model of asthma where glucose had already been shown therapeutic efficacy. For this purpose, 10 male C57B1/6 mice were immunized intraperitoneally with 100 μg of ovalbumin (grade V) suspended in 500 μg Al(OH)3. Another group of 10 animals was treated the same way and, in addition, also with compound 4 (25 μg/kg) administered orally. One week after the first immunization, the same treatments were repeated. Two weeks after the first immunization, the first group of animals was challenged for 25 min with an aerosol of 5% (wt/vol) ovalbumin every day, for 5 consecutive days, while the other group received aerosolized ovalbumin plus compound 4 (25 μg/kg).
# A hallmark of inflammatory damage to the lung is the development of high-permeability edema, characterized by high protein content in the edema fluid. Indeed, in the lungs of ovalbumin-exposed mice the protein concentration in the BALF was markedly high (0.729 mg/ml), witnessing an important damage to the lungs of these animals. On the other hand, the protein concentration in the BALF of ovalbumin+4-treated animals was similar to that of untreated animals (0.394 mg/ml).
# Eventually, also the cytokine levels in the sera and BALFs of ovalbumin- or ovalbumin+compound 4-treated animals were measured. The levels of the cytokines IL-5 and IL-4, which are pivotal in the pathogenesis of asthmatic disease, were elevated in both sera and BALF from ovalbumin-treated mice, but normal in ovalbumin+4-treated animals.
# A549 human pneumocytes = assay: LPS-induced IL-8 production by A549 human pneumocytes; type: cell-based; conditions: LPS from Pseudomonas aeruginosa 100 μg/ml, compound 4 5 μg/L
# Procedure: FIG. 2B. LPS (100 μg/ml)-induced IL-8 production by A549 human pneumocytes in the absence or presence of compound (Comp) 4 (5 μg/L).
# The effect of the compounds on the release of IL-8 or KC was tested upon stimulation of intestinal epithelial cells (IEC) with LPS from Salmonella enterica abortus equi. The human IEC line HT29 was used for these experiments. Cells were cultured for 18 h in medium alone or in medium additioned with different concentrations of compounds 4, 5, 6, 7, 4′ and 14 (from 50 mg/L to 5 μg/L). Then, cells were stimulated for 6 h with LPS (1 μg/ml). […] Similar experiments were performed on a human pneumocyte type II cell line (A549) using compound 4 and LPS from Pseudomonas aeruginosa.
# [4] = system: SGLT-1-mediated intestinal glucose absorption; assay: Glycemia in mice after oral glucose challenge; type: in vivo; conditions: plasma, mice challenged orally with 2.5 g/kg glucose + 250 μg/kg compound 4, 1 h
# Procedure: As such, it was argued that it might act as a functional antagonist of SGLT-1-mediated intestinal glucose absorption, and used for the control of hyperglycemia in type II diabetes. This possibility was tested in the following experiments.
# In a first set of experiments mice were orally challenged with 2.5 g/kg of glucose with or without concomitant administration of compound 4 (250 μg/kg) and glycemia was measured after 1 h.
compound,measurement,setting,value
"CN(C)c1cccc2c(S(=O)(=O)NCC[C@H]3O[C@H](CO)[C@@H](O)[C@H](O)[C@H]3O)cccc12 [Compound 4, 5-(Dimethylamino)-N-[2′-(α-D-glucopyranosyl)ethyl]-1-naphthalenesulphonamide]",Histology of the epithelium of the small intestine,[1],normal morphology
same,circulating KC levels,[1],strongly reduced
same,Serum KC levels,mice treated with LPS,comparable to those of untreated mice
same,Protection against LPS/GalN-induced shock,[2],full protection
same,Protection against ovalbumin inflammation,[3]; oral administration of compound 4 during aerosol ovalbumin challenge (data not shown),protects the ovalbumin inflammation analogously to the aerosol challenge
same,IL-4 levels in BALF,[3]; ovalbumin + compound 4,normal
same,IL-4 levels in sera,[3]; ovalbumin + compound 4,normal
same,IL-5 levels in BALF,[3]; ovalbumin + compound 4,normal
same,IL-5 levels in sera,[3]; ovalbumin + compound 4,normal
same,IL-10 levels in sera,[3]; ovalbumin + compound 4,greatly increased
same,protein concentration in the BALF,[3]; ovalbumin + compound 4 (25 μg/kg),0.394 mg/mL
same,eosinophils in BALF,"[3]; ovalbumin + compound 4 (25 μg/kg; oral at immunization, aerosol at challenge)",127 cells/ml
same,LPS-induced IL-8 production,A549 human pneumocytes,significantly inhibited
same,Glycemia levels,[4],150 mg/dL
